Measured values reported in PMC7440915, “Discovery of surrogate agonists for visceral fat Treg cells that modulate metabolic indices in vivo” (eLife, 2020).
pEC50, pKd: −log10 of the molar value. Where no end group is shown, it is not given here.

Key:
vTreg53 (Fat) TCR = experiment: Surface plasmon resonance, pMHC/Fat TCR affinity; assay type: binding, murine; settings: 25°C
Description: (§1) Figure 3. Identification of robust vTreg53 TCR agonists. Single-point mutants based on the Fat7 (A) or Fat15 (B) peptides were used to stimulate Fat-TCR transduced Jurkat T cells. Data shown are mean fluorescence intensity for CD69 up-regulation following overnight stimulation with the indicated peptides at 100 µM. (C) Potent SPs based on Fat15. Single-residue mutations from the Fat15 are shown in red. Anchor positions are shown in grey and potential TCR-facing positions are shown in green. A peptide titration of single- and double-point mutants from the Fat15 SP show up to ~4- (D; CD69) or ~8 fold (E; CD25) increase in Emax. (F) Surface plasmon resonance for Fat7, Fat15, Fat1562 and Fat2564 was used to determine the pMHC/Fat TCR affinity. All biotinylated pMHC were purified by SEC and immobilized in a streptavidin-coated SPR sensor chip from 200 up to 600 RU. Data are mean ± SD from n = 2 (A, D, E) or 3 (B) biological replicates from 1 representative of 3 independent experiments. Data shown in (F) is representative of 2 independent experiments. Figure 3—figure supplement 1. In vitro peptide stimulation of the vTreg53 TCR cells. (A) Expression of wild-type Ab MHC in stably transduced K562 cells. (B) Expression of vTreg53 TCR in stably transduced Jurkat T cells (TCRαβ-/-). (C) Fraction of CD25+/CD69+ cells following overnight stimulation with Fat mimotopes at the indicated concentrations. (D) Peptide-A^b - streptavidin PE (pAb -SAPE) titration of vTreg53 transduced Jurkat T cells. Cells were stained with 250 nM of pA^b-SAPE tetramer for 1 hr.
High Five cells (Tni; Expression Systems) were grown in Insect X-press media (Lonza) or ESF 921 media (Expression Systems) with a final concentration of 10 mg/L of gentamicin sulfate (ThermoFisher) at 27°C at atmospheric CO2. SF9 cells are grown in SF900-III or -II serum-free media (ThermoFisher) with 10% FBS and final concentration 10 mg/L of gentamicin sulfate and 2 mM glutamax at 27°C at atmospheric CO2. P1 or P2 virus was used to infect volumes of 1–3 L of Hi5 cells at ∼2 × 10^6 cells/ml. Supernatant was harvested 2–3 days post-infection and spun down at 8000 rpm for 15 min. The supernatant containing expressed protein was treated to 100 mM Tris pH 8.0, 1 mM NiCl2, and 5 mM CaCl2 to precipitate contaminants. The supernatant and precipitate mixture was spun down at 8000 rpm for 20 min at 4°C to remove precipitate. The supernatant was incubated with Ni-NTA resin (QIAGEN) for >3 hr at room temperature. Ni-NTA beads were collected and washed in a Buchner funnel with 20 mM imidazole in 1 x HBS pH 7.2 and eluted with 200 mM imidazole in 1x HBS pH 7.2. Protein was concentrated in a 10 kDa filter (Millipore, UFC903024) to ~1 mL. When appropriate, protein was biotinylated with BirA ligase, 100 μM biotin, 40 mM Bicine pH 8.3, 10 mM ATP, and 10 mM Magnesium Acetate at 4°C overnight. All proteins were further purified by size-exclusion chromatography using Superdex Increase S200 or S75, as appropriate (GE Healthcare). All proteins for in vivo studies were cleared of endotoxin. Final endotoxin levels were determined using a chromogenic endotoxin quantitation kit (Thermo Fisher) and never greater than 1 Endotoxin Unit/mg of purified protein.
A GE Biacore T100 was used to measure the KD by equilibrium methods. Approximately 200 resonance units (RU) of human CD45, PD-1 or mouse PD-1 was captured on a SA-chip (GE Healthcare), including a reference channel of an unrelated protein. SPR runs were performed in HBS-P+ (GE Healthcare). All measurements were made with 2-fold serial dilutions using 45–60 s association (at 30 μl/min) followed by >240 s dissociation (30 μl/min) at 25°C. Regeneration was performed using HBS-P+, 2 M MgCl2 or 0.1 M Glycine, pH 3.1 for 15–20 s at 50 μl/min. Measurement of titrations at equilibrium were used to determine the KD using Biacore Analysis Software (GE Healthcare). All measurements were repeated twice.

[1] = test system: vTreg53 TCR (transduced Jurkat T cells); experiment: CD69/CD25 up-regulation on vTreg53 TCR transduced Jurkat T cells with peptide-pulsed K562-A^b cells; assay type: cell-based, Homo sapiens (cells); murine TCR
Description: as §1
Cell lines were kept in a humidified incubator at 37°C with 5% CO2 unless otherwise denoted. Jurkat T cells (derived from acute T cell leukemia ATCC TIB-152) and K562 cells (ATCC CCL-243) were cultured in RPMI supplemented with 2 mM glutamax (Invitrogen), 10% FBS (Sigma),10 mM HEPES pH 8.0 (ThermoFisher), 1 mM Sodium Pyruvate (Gibco) and 50 U/ml penicillin and streptomycin (ThermoFisher). Validation of T cell lines was performed by staining with known markers pre- and post- transfection or transduction. HEK293T (Lenti-X; Takara Bio USA, #632180) cells (female derived kidney cell line) were grown in DMEM complete media (ThermoFisher) supplemented with 10% FBS, 2 mM L-glutamine, and 50 U/ml of penicillin and streptomycin. Cells were tested for mycoplasma contamination using the MycoAlert Mycoplasma Detection kit (Lonza) and found to be mycoplasma-negative. For peptide assays, Jurkat T cells were rested overnight or for 2–3 hr in fresh RPMI complete. Cells were co-cultured for 16 to 48 hr with surrogate APCs: K562 transduced with A^b. After overnight incubation, cells were washed in MACS buffer and stained with anti-TCR, A^b, CD69 and CD25. EBY100 yeast cells were cultured in sterile filtered standard YPD (Bacto Peptone, glucose and yeast extract). Transformed yeast were grown in SDCAA (yeast nitrogen base, casamino acids -ADE, -URA, -TRP, D-glucose and buffered to pH 4.5 using sodium citrate and citric acid monohydrate) and induced in SGCAA where galactose replaces D-glucose. EBY100 cells are grown at 30°C when cultured in SDCAA, or at 20°C when cultured in SGCAA at atmospheric CO2 in an orbital shaker set to an agitation speed of 250 rpm.

Sequence: TMYKNPRPVAATG [Fat15]
- pKd (vTreg53 (Fat) TCR; Biacore T100, biotinylated pMHC immobilized on SA chip 200 to 600 RU, HBS-P+, equilibrium, representative of 2 experiments): 4.48
- koff (vTreg53 (Fat) TCR; SPR): fast kon and koff
- kon (vTreg53 (Fat) TCR; SPR): fast kon
- CD69 up-regulation ([1]; overnight stimulation, screen at 100 µM): able to up-regulate CD69 expression
- pEC50 ([1]; peptide titration, CD69 (Figure 3D), overnight, mean ± SD from n = 2 biological replicates, 1 representative of 3 experiments): 4.39
